The values that follow come from US12139492B2 (Endotarget Inc., priority 2021, dated 2024).

By Dmax is commonly meant the greatest extent of degradation seen. A word on the DC50: it is the concentration giving 50% degradation. Read a high DC50 as a less potent degrader.

SMILES strings stand for the structures. Like-named read-outs stand apart in the source and are kept apart here. Where only a bound is given, the exact number is not on record here.

The test system of one test is Mino cells. In words: Antiproliferative effect, MTS cell viability assay, Mino cells. It is filed as cell-based. The settings on record: Homo sapiens, Mino mantle cell lymphoma cells, read-out: IC50 (anti-proliferation) Mino cells. As to the method:
(§1) Antiproliferative effect of the exemplary compounds was assessed in B-cell malignancy models.
(§2) To assess the effect of the exemplary compounds on cell viability in B-cell malignancy models by degradation of BTK protein, Mino and JeKo-1 cells were treated with varying concentrations of Ibrutinib (0, 0.001, 0.01, 0.1, 1, 10 μM). Under these conditions, cell viability was determined by an MTS assay. Cytotoxicity was assayed by the determination of reduced tetrazolium (formazan) created by metabolically active cells as detected at 490 nm absorbance using a microplate reader (BMG Labtech, Cary, NC, USA).
(§3) The exemplary compounds attenuated the viability of Mino and JeKo-1 cells in a concentration-dependent manner at 72 h post treatment. Results are shown in Table 1 for each exemplary compound.
In general terms: Tetrazolium assays rely on reduction of a dye to a coloured formazan, in cell work by metabolically active cells.

Another test has as its system JeKo-1 cells. In words: Antiproliferative effect, MTS cell viability assay, JeKo-1 cells. Conditions: Homo sapiens; JeKo-1 mantle cell lymphoma cells; read-out: IC50 (anti-proliferation) JeKO-1 cells. The format is cell-based. As to the method: as §1, §2, §3
For another test, the target named is BTK (Homo sapiens, UniProt Q06187). In words: Degradation of BTK protein in Namalwa cells (Western blot; DC50, Dmax). Conditions: for DC50: BTK degradation, cell line not given. (In general: A western blot detects proteins with antibodies after separation by electrophoresis.)
Chain of BTK (Q06187 whole entry): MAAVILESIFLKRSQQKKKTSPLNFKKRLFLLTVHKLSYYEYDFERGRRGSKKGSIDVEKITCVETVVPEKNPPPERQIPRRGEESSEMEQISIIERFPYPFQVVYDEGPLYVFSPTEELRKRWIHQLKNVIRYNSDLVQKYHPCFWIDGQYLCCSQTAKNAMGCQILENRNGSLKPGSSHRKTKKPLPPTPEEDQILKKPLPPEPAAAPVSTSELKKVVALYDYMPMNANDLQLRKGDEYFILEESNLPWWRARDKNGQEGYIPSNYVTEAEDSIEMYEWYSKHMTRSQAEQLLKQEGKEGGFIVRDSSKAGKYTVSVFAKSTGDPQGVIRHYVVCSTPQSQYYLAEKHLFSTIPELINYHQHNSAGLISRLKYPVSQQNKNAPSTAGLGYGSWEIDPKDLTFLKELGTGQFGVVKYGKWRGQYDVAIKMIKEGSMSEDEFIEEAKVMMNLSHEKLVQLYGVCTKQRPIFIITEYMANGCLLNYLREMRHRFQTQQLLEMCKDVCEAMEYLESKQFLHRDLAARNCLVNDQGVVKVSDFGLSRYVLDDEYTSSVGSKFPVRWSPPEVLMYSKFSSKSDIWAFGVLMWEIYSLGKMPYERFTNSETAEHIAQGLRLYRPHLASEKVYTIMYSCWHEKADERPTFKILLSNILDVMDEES

Take `Nc1ncnc2c1c(-c1ccc(Oc3ccccc3)cc1)nn2C1CCN(CC2CCN(CCN3CCC(c4ccc5c(c4)CN(C4CCC(=O)NC4=O)C5=O)CC3)CC2)CC1` (centres unmarked) [Compound 206, 3-(5-(1-(2-(4-((4-(4-amino-3-(4-phenoxyphenyl)-1H-pyrazolo[3,4-d]pyrimidin-1-yl)piperidin-1-yl)methyl)piperidin-1-yl)ethyl)piperidin-4-yl)-1-oxoisoindolin-2-yl)piperidine-2,6-dione]: the IC50 in the test with Mino cells (MINO) and in the test on JeKo-1 cells was < 1 µM in each case. Also, the maximal degradation (Dmax) on BTK is > 90%. At BTK, this molecule returned a 50% degradation concentration (DC50) of 0.01 to 0.05 µM.
Regarding `Nc1ncnc2c1c(-c1ccc(Oc3ccccc3)cc1)nn2C1CCN(CC2CCN(CCCN3CCN(c4ccc5c(c4)C(=O)N(C4CCC(=O)NC4=O)C5=O)CC3)CC2)CC1` (centres unmarked) [Compound 207], in the test with Mino cells (MINO), the IC50 is > 10 µM. For the same molecule, the IC50 in the test on JeKo-1 cells was > 10 µM. For the same molecule, on BTK, the Dmax is > 75% and the DC50 was > 0.05 µM.
Take `Nc1ncnc2c1c(-c1ccc(Oc3ccccc3)cc1)nn2C1CCN(CC2CCN(CCCN3CCN(c4ccc5c(c4)CN(C4CCC(=O)NC4=O)C5=O)CC3)CC2)CC1` (centres unmarked) [Compound 208, 3-(5-(4-(3-(4-((4-(4-amino-3-(4-phenoxyphenyl)-1H-pyrazolo[3,4-d]pyrimidin-1-yl)piperidin-1-yl)methyl)piperidin-1-yl)propyl)piperazin-1-yl)-1-oxoisoindolin-2-yl)piperidine-2,6-dione]: in the test on Mino cells (MINO), the IC50 was > 10 µM. Further, the IC50 with JeKo-1 cells was > 10 µM. At BTK, the Dmax was > 75% and the DC50 was > 0.05 µM.
With `Nc1ncnc2c1c(-c1ccc(Oc3ccccc3)cc1)nn2C1CCN(CC2CCN(CCCN3CCC(c4ccc5c(c4)C(=O)N(C4CCC(=O)NC4=O)C5=O)CC3)CC2)CC1` (centres unmarked) [Compound 209, 5-(1-(3-(4-((4-(4-amino-3-(4-phenoxyphenyl)-1H-pyrazolo[3,4-d]pyrimidin-1-yl)piperidin-1-yl)methyl)piperidin-1-yl)propyl)piperidin-4-yl)-2-(2,6-dioxopiperidin-3-yl)isoindoline-1,3-dione], the IC50 in the test on Mino cells (MINO) is > 10 µM. Also, the IC50 in the test on JeKo-1 cells was > 10 µM. Besides, on BTK, the Dmax is > 75% and the half-maximal degradation concentration (DC50) lay within 0.01 to 0.05 µM.
On to `Nc1ncnc2c1c(-c1ccc(Oc3ccccc3)cc1)nn2C1CCN(CC2CCN(CCCN3CCC(c4ccc5c(c4)CN(C4CCC(=O)NC4=O)C5=O)CC3)CC2)CC1` (centres unmarked) [Compound 210, 3-(5-(1-(3-(4-((4-(4-amino-3-(4-phenoxyphenyl)-1H-pyrazolo[3,4-d]pyrimidin-1-yl)piperidin-1-yl)methyl)piperidin-1-yl)propyl)piperidin-4-yl)-1-oxoisoindolin-2-yl)piperidine-2,6-dione], for which the IC50 in the test with Mino cells (MINO) was in the range of 1 to 10 µM. Also, in the test on JeKo-1 cells, the IC50 lay within 1 to 10 µM. Besides, on BTK, the Dmax is > 75% and the half-maximal degradation concentration (DC50) fell in the range of 0.01 to 0.05 µM.
Turning to `Nc1ncnc2c1c(-c1ccc(Oc3ccccc3)cc1)nn2C1CCN(CC2CCN(CCCC3CCN(c4ccc5c(c4)C(=O)N(C4CCC(=O)NC4=O)C5=O)CC3)CC2)CC1` (centres unmarked) [Compound 211, 5-(4-(3-(4-((4-(4-amino-3-(4-phenoxyphenyl)-1H-pyrazolo[3,4-d]pyrimidin-1-yl)piperidin-1-yl)methyl)piperidin-1-yl)propyl)piperidin-1-yl)-2-(2,6-dioxopiperidin-3-yl)isoindoline-1,3-dione], the values for the IC50 in the test on Mino cells (MINO) and in the test with JeKo-1 cells were 1 to 10 µM and > 10 µM, respectively. In addition, on BTK, the Dmax was > 75%. On BTK, this molecule came in with a DC50 of 0.01 to 0.05 µM.
`Nc1ncnc2c1c(-c1ccc(Oc3ccccc3)cc1)nn2C1CCN(CC2CCN(CCCC3CCN(c4ccc5c(c4)CN(C4CCC(=O)NC4=O)C5=O)CC3)CC2)CC1` (centres unmarked) [Compound 212, 3-(5-(4-(3-(4-((4-(4-amino-3-(4-phenoxyphenyl)-1H-pyrazolo[3,4-d]pyrimidin-1-yl)piperidin-1-yl)methyl)piperidin-1-yl)propyl)piperidin-1-yl)-1-oxoisoindolin-2-yl)piperidine-2,6-dione]: in the test on Mino cells (MINO), the IC50 lay in the range of 1 to 10 µM. The IC50 with JeKo-1 cells was > 10 µM. On BTK, the Dmax is > 90% and the half-maximal degradation concentration (DC50) is 0.01 to 0.05 µM.
As to `Nc1ncnc2c1c(-c1ccc(Oc3ccccc3)cc1)nn2C1CCN(C2CCN(CC3CCN(c4ccc5c(c4)C(=O)N([C@@H]4CCC(=O)NC4=O)C5=O)CC3)CC2)CC1` [Compound 213a, (R)-5-(4-((4-(4-amino-3-(4-phenoxyphenyl)-1H-pyrazolo[3,4-d]pyrimidin-1-yl)[1,4′-bipiperidin]-1′-yl)methyl)piperidin-1-yl)-2-(2,6-dioxopiperidin-3-yl)isoindoline-1,3-dione], the IC50 with Mino cells (MINO) was < 1 µM. Also, the IC50 in the test with JeKo-1 cells is < 1 µM. At BTK, the Dmax is > 90% and the DC50 was < 0.01 µM.
With `Nc1ncnc2c1c(-c1ccc(Oc3ccccc3)cc1)nn2C1CCN(C2CCN(CC3CCN(c4ccc5c(c4)CN(C4CCC(=O)NC4=O)C5=O)CC3)CC2)CC1` (centres unmarked) [Compound 214], the IC50 in the test on Mino cells was 1 to 10 µM. Moreover, in the test on JeKo-1 cells, the IC50 fell in the range of 1 to 10 µM. Besides, at BTK, the Dmax is < 50% and the DC50 was > 0.05 µM. On BTK (Namalwa B lymphocyte cells, various concentrations, 24 hours, Western blot), the “degradation of BTK protein” value is recorded as “dose-dependent degradation”.
As for `Nc1ncnc2c1c(-c1ccc(Oc3ccccc3)cc1)nn2C1CCN(C2CCN(CCC3CCN(c4ccc5c(c4)C(=O)N(C4CCC(=O)NC4=O)C5=O)CC3)CC2)CC1` (centres unmarked) [Compound 215, 5-(4-(2-(4-(4-amino-3-(4-phenoxyphenyl)-1H-pyrazolo[3,4-d]pyrimidin-1-yl)-[1,4′-bipiperidin]-1′-yl)ethyl)piperidin-1-yl)-2-(2,6-dioxopiperidin-3-yl)isoindoline-1,3-dione], the IC50 in the test on Mino cells (MINO) was 1 to 10 µM. Moreover, the IC50 in the test on JeKo-1 cells is < 1 µM. Also, on BTK, the greatest degradation seen (Dmax) was > 75% and the DC50 was 0.01 to 0.05 µM.
In the same order, the values of `Nc1ncnc2c1c(-c1ccc(Oc3ccccc3)cc1)nn2C1CCN(C2CCN(CCC3CCN(c4ccc5c(c4)CN(C4CCC(=O)NC4=O)C5=O)CC3)CC2)CC1` (centres unmarked) [Compound 216, 3-(5-(4-(2-(4-(4-amino-3-(4-phenoxyphenyl)-1H-pyrazolo[3,4-d]pyrimidin-1-yl)-[1,4′-bipiperidin]-1′-yl)ethyl)piperidin-1-yl)-1-oxoisoindolin-2-yl)piperidine-2,6-dione] are < 1 µM, < 1 µM, > 75% and 0.01 to 0.05 µM.
For `Nc1ncnc2c1c(-c1ccc(Oc3ccccc3)cc1)nn2C1CCN(C2CCN(CCN3CCN(c4ccc5c(c4)C(=O)N(C4CCC(=O)NC4=O)C5=O)CC3)CC2)CC1` (centres unmarked) [Compound 217, 5-(4-(2-(4-(4-amino-3-(4-phenoxyphenyl)-1H-pyrazolo[3,4-d]pyrimidin-1-yl)-[1,4′-bipiperidin]-1′-yl)ethyl)piperazin-1-yl)-2-(2,6-dioxopiperidin-3-yl)isoindoline-1,3-dione], the IC50 in the test with Mino cells (MINO) was in the range of 1 to 10 µM. The IC50 with JeKo-1 cells was < 1 µM. For the same molecule, on BTK, the maximal degradation (Dmax) is > 75% and the DC50 lay in the range of 0.01 to 0.05 µM.
For the molecule `Nc1ncnc2c1c(-c1ccc(Oc3ccccc3)cc1)nn2C1CCN(C2CCN(CCN3CCN(c4ccc5c(c4)CN(C4CCC(=O)NC4=O)C5=O)CC3)CC2)CC1` (centres unmarked) [Compound 218, 3-(5-(4-(2-(4-(4-amino-3-(4-phenoxyphenyl)-1H-pyrazolo[3,4-d]pyrimidin-1-yl)-[1,4′-bipiperidin]-1′-yl)ethyl)piperazin-1-yl)-1-oxoisoindolin-2-yl)piperidine-2,6-dione], in the test on Mino cells (MINO), the IC50 lay in the range of 1 to 10 µM. In the test on JeKo-1 cells, the IC50 was < 1 µM. Besides, on BTK, the greatest degradation seen (Dmax) was > 75% and the DC50 is 0.01 to 0.05 µM.
The matching figures for `Nc1ncnc2c1c(-c1ccc(Oc3ccccc3)cc1)nn2C1CCN(C2CCN(CCN3CCC(c4ccc5c(c4)C(=O)N(C4CCC(=O)NC4=O)C5=O)CC3)CC2)CC1` (centres unmarked) [Compound 219, 5-(1-(2-(4-(4-amino-3-(4-phenoxyphenyl)-1H-pyrazolo[3,4-d]pyrimidin-1-yl)-[1,4′-bipiperidin]-1′-yl)ethyl)piperidin-4-yl)-2-(2,6-dioxopiperidin-3-yl)isoindoline-1,3-dione]: 1 to 10 µM, 1 to 10 µM, > 50% and 0.01 to 0.05 µM.
In the same order, the values of `Nc1ncnc2c1c(-c1ccc(Oc3ccccc3)cc1)nn2C1CCN(C2CCN(CCN3CCC(c4ccc5c(c4)CN(C4CCC(=O)NC4=O)C5=O)CC3)CC2)CC1` (centres unmarked) [Compound 220, 3-(5-(1-(2-(4-(4-amino-3-(4-phenoxyphenyl)-1H-pyrazolo[3,4-d]pyrimidin-1-yl)-[1,4′-bipiperidin]-1′-yl)ethyl)piperidin-4-yl)-1-oxoisoindolin-2-yl)piperidine-2,6-dione] are 1 to 10 µM, 1 to 10 µM, > 75% and 0.01 to 0.05 µM.
`Nc1ncnc2c1c(-c1ccc(Oc3ccccc3)cc1)nn2C1CCN(C2CCN(CCCN3CCN(c4ccc5c(c4)C(=O)N(C4CCC(=O)NC4=O)C5=O)CC3)CC2)CC1` (centres unmarked) [Compound 221, 5-(4-(3-(4-(4-amino-3-(4-phenoxyphenyl)-1H-pyrazolo[3,4-d]pyrimidin-1-yl)-[1,4′-bipiperidin]-1′-yl)propyl)piperazin-1-yl)-2-(2,6-dioxopiperidin-3-yl)isoindoline-1,3-dione]: in the test on Mino cells (MINO), the IC50 was > 10 µM. For the same molecule, the IC50 in the test on JeKo-1 cells fell in the range of 1 to 10 µM. Also, at BTK, the maximal degradation (Dmax) was > 75% and the 50% degradation concentration (DC50) was 0.01 to 0.05 µM.
